One may read the IC50 as the concentration that gives 50% inhibition. High values mean a need for much substance, low ones inhibition by little substance.

This note sets out measurements from patent US10907191B2, “Method for measuring activity of oxidoreductase” (NATIONAL AGRICULTURE AND FOOD RESEARCH ORGANIZATION, priority 2016, dated 2021).

This test deals with T1, HAO derived from Nitrosomonas europaea (Nitrosomonas europaea, UniProt Q50925).
T1 construct: HAO was purified from ammonia oxidizing bacteria, and stored in a solution state or after drying; made in house; host or cells: Nitrosomonas europaea cells (native enzyme, not recombinant), purified by column chromatography
Briefly: Determination of 50% inhibitory concentration against HAO by HAO fluorescence measurement (resazurin method). It counts as biochemical. As to conditions: n=4, nonlinear fitting. Here is the method: The HAO fluorescence activity measurement was carried out to the compound library for screening by the resazurin method, and the inhibitory effect of these compounds was verified. The 40 kinds of compounds were dissolved in DMSO for molecular biology (available from Wako Pure Chemical Industries, Ltd.) or ultrapure water at a concentration of 100 mM, and further 2-fold dilution series was prepared with 16 series (100 mM, 50 mM, 25 mM, 12.5 mM, 6.25 mM, 3.13 mM, 1.56 mM, 0.78 mM, 0.39 mM, 0.19 mM, 97 μM, 48.8 μM, 24.4 μM, 12.2 μM, 6.1 μM and 3.1 μM) (final concentration becomes 1/200 concentration thereof). […] The plate was inserted into a fluorescence plate reader attached with a reagent injector (infinite M1000 PRO, manufactured by Tecan Co.), and 25 μL of 4 mM hydroxylamine stock solution for 4-fold dilution was added per well, so that an amount of the hydroxylamine to that of the resazurin was made 10-fold amount (molar ratio) in the reaction system. After 2 hours of incubation, fluorescence measurement (excitation wavelength 562 nm: wavelength width 20 nm, measurement wavelength 592 nm: wavelength width 20 nm) was carried out. Candidate compound A was selected as a inhibitor which decreased the fluorescence intensity to 10% or less compared with without-inhibitor condition. […]
For orientation: The colour change of resazurin is a common sign of viable cells or microbes.

Molecules are shown by their SMILES.

T1 sequence (Q50925 25-570): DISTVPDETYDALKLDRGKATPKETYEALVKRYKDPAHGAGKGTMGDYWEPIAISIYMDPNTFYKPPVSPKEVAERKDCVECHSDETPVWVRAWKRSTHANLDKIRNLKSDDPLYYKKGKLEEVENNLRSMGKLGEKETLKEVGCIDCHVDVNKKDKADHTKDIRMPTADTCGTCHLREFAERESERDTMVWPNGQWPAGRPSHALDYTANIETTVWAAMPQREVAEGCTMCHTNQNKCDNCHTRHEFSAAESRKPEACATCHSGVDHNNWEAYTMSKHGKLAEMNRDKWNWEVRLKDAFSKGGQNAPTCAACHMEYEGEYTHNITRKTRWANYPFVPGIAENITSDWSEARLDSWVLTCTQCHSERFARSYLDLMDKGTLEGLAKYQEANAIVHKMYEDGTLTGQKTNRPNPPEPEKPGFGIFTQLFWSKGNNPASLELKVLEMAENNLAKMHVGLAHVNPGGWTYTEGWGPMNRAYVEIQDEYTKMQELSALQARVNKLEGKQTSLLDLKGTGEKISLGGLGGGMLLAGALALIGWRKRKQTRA

`NNc1ccccc1` [phenylhydrazine] registered an IC50 of 0.276 µM.
